Reference: patent US12447152B2, “Pharmaceutical combination of PRMT5 inhibitors” (Lupin Limited, priority 2019, dated 2025)

Columns and labels:
[1] = tested on: MIA PaCa-2 human pancreatic cancer xenograft; assay: In vivo efficacy study of Compound-24 with Ulixertinib (BVD-523), MIA PaCa-2 xenograft (tumor fragments); set-up: species or system nude mice; conditions: Compound-24 alone, 1 mg/kg b.i.d.
Procedure: MIA PaCa-2 tumor fragments were implanted subcutaneously in nude mice. […] Compound-24 (1 mg/kg; b.i.d.), BVD-523 (25 mg/kg; b.i.d.) and Compound-24+BVD-523 (Compound-24; 1 mg/kg; b.i.d+BVD-523; 25 mg/kg; b.i.d.).

[2] = tested on: MIA PaCa-2 human pancreatic cancer xenograft; assay: In vivo efficacy study of Compound-24 with Afatinib, MIA PaCa-2 xenograft; set-up: species or system nude mice
Procedure: Compound-24 (1 mg/kg; b.i.d.), Afatinib (12.5 mg/kg; q.d.) and Compound-24+Afatinib (Compound-24; 1 mg/kg; b.i.d+Afatinib; 12.5 mg/kg; q.d.).

[3] = tested on: MIA PaCa-2 human pancreatic cancer xenograft; assay: In vivo efficacy study of Compound-24 with BI-3406, MIA PaCa-2 xenograft; conditions: Compound-24 alone, 1 mg/kg; day 15
Description: The tumor-bearing mice were randomized once the tumors reached an average volume of approximately 155-159 mm^3 (Tumor volume range 107-248 mm^3).

Row | SMILES | % tumor growth inhibition [1] [%] | % tumor growth inhibition ([2]; Compound-24 alone, 1 mg/kg b.i.d.) [%] | % tumor growth inhibition [3] [%] | % tumor growth inhibition ([2]; Afatinib alone, 12.5 mg/kg q.d.) [%]
1 | Nc1nc2cc(CCC3=C[C@@H](n4ccc5c(N)ncnc54)[C@H](O)[C@@H]3O)cc(F)c2cc1Cl [Compound-24, (1S,2R,5R)-3-(2-(2-Amino-3-chloro-5-fluoroquinolin-7-yl)ethyl)-5-(4-amino-7H-pyrrolo[2,3-d]pyrimidin-7-yl)cyclopent-3-ene-1,2-diol] | 58.83±9.92 | 48.03±5.75 | 47.88±12.12 | –
2 | CN(C)C/C=C/C(=O)Nc1cc2c(Nc3ccc(F)c(Cl)c3)ncnc2cc1O[C@H]1CCOC1 [Afatinib, (E)-N-(4-(3-chloro-4-fluoroanilino)-7-[(3S)-oxolan-3-yl)oxoquinazolin-6-yl)-4-(dimethylamino)but-2-enamide, reference compound] | – | – | – | 58.68±5.14
